In publication PMC5607265, “Design, synthesis and structure-activity relationship of 3,6-diaryl-7H-[1,2,4]triazolo[3,4-b][1,3,4]thiadiazines as novel tubulin inhibitors” (Scientific Reports, 2017):
“Also recorded” adds a separate entry of the source.

Assays:
[1] = test system: tubulin network of SGC-7901 cells; experiment: Immunofluorescence of tubulin network; assay type: cell-based, human; conditions: 2-fold IC50 (0.022 µM), 12 h
Description: CA-4 was employed as positive control in this experiment.
Figure 4 Effects of 6i on tubulin network of SGC-7901 cells by immunofluorenscence. […] The left and middle panels represent the tubulin assembly stained with DAPI and FITC and the right panel represents a merge of the corresponding left and middle panels.
The SGC-7901 cells were seeded at a density of 1 × 10^4 per well on a 24-well plate and grown for 24 h. […] Cells in the control group were treated with culture medium. The control and treated cells were fixed with 4% formaldehyde in PBS for 30 min at -20 °C, then washed twice with PBS and permeabilized with 0.1% (v/v) Triton X-100 in PBS for 5 min. Then, the cells were blocked with 3% bovine serum albumin (BSA) in PBS for 30 min. […] The cells were washed with PBS to remove unbound secondary antibody, nucleus was stained with 4,6-diamino-2-phenolindol dihydrochloride (DAPI) and then, immunofluorescence was detected using a fluorescence microscope (Olympus, Tokyo, Japan).
Immunostaining was carried out to detect microtubule associated tubulin protein after exposure to 6i and CA-4. […] The cells were washed with PBS to remove unbound secondary antibody, nucleus was stained with 4,6-diamino-2-phenolindol dihydrochloride (DAPI) and then, immunofluorescence was detected using a fluorescence microscope (Olympus, Tokyo, Japan).

[2] = biological target: T1, highly purified tubulin from porcine brain (Sus scrofa, UniProt P02554); experiment: Tubulin polymerization assay; assay type: biochemical; conditions: 37 °C; for effect on tubulin polymerization in words: CA-4 0.5-4 µM, 6i 0.1-8.0 µM, paclitaxel 5.0 µM
T1 construct: highly purified tubulin from porcine brain; purchased Cytoskeleton BK011P; host or cells: porcine brain (tissue-purified)
Description: This assay uses highly purified tubulin from porcine brain.
The reaction was monitored at 37 °C.
(§1) Tubulin polymerization assay[33] was conducted with reagents as described in the kit manufacturer (Cytoskeleton, Cat.#BK011P) in a 96-well plate. In brief, tubulin was re-suspended in ice-cold G-PEM buffer (80 mM PIPES, 2 mM MgCl2, 0.5 mM EGTA, 1 mM GTP, 20% (v/v) glycerol) and added to wells on a 96-well plate containing the designated concentration of drugs or vehicle. Samples were mixed well, and tubulin assembly was monitored (emission wavelength: 450 ± 20 nm; excitation wavelength: 360 ± 20 nm) at 1 min intervals for 90 min at 37 °C in a SpectraMax 340PC spectrophotometer (Biotek Synergy HT, Winooskin, VT, USA). IC50 values were calculated from data at the 20 min time point using GraphPad Prism software. Experiments were repeated three times.
as §1, with “assay” for “assay[33]”, “450±20” for “450 ± 20”, “360±20” for “360 ± 20”, “timepoint” for “time point”

[3] = test system: SGC-7901, A549 and HT-1080 cell lines; experiment: MTT antiproliferative assay, span over the three cell lines; assay type: cell-based, human; conditions: MTT assay; for IC50: Homo sapiens, range over SGC-7901, A549 and HT-1080, read-out: IC50 range against the three human cancer cell lines
Description: (§2) The SGC-7901, A549 and HT-1080 cell lines were purchased from the American Type Culture Collection (ATCC, Manassas, VA, USA). […] Briefly, approximately 3 × 10^4 cells were seeded in a 96-well plate. After 24 h of incubation at 37 °C, cells were exposed to compounds of differing concentrations for 24 h. After treatment, cells were washed with 1X PBS followed by addition of 100 µL of 0.05% MTT reagent to each well, followed by incubation for 4 h at 37 °C. After incubation, the supernatant from each well was carefully removed and the formazan crystals were dissolved in 100 µL of DMSO. The colour density was measured spectrophotometrically at 490 nm using a microplate reader (SpectraMax Plus384, Molecular Devices Corp., USA). The data were calculated and plotted as percent viability compared to control.
as §2

[4] = biological target: colchicine-binding site on tubulin (Sus scrofa, UniProt P02554); experiment: Competitive tubulin-binding assay (colchicine); conditions: 5.0 µM colchicine; compound 1.6, 5.0, 15.0 µM
Description: To confirm whether these designed compounds could bind to the colchicine site on tubulin, compound 6i was investigated for its ability of competitive inhibition of colchicine binding[39],[40]. CA-4 and paclitaxel were used as a positive and a negative control, respectively.
Figure 6 Competitive binding of 6i to colchicine-binding site on tubulin.
For the colchicine competitive binding assay, tubulin was co-incubated with indicated concentrations of MPSP-001 and paclitaxel at 37 °C for 1 h. Then colchicine was added to a final concentration of 5 μmol L^−1. Fluorescence was determined using a Hitachi F-2500 spectrofluorometer (Tokyo, Japan) at the excitation wavelength of 365 nm and the emission wavelength of 435 nm. Blank values (buffer alone) as the background were subtracted from all samples. […] Paclitaxel, not binding in the colchicine site of tubulin, was added as a negative control. The experiments were repeated at least three times.
(5). Competitive tubulin-binding assay. For the colchicine competitive binding assay, tubulin was co-incubated with indicated concentrations of MPSP-001 and paclitaxel at 37 °C for 1 h. Then colchicine was added to a final concentration of 5 μmol L^−1. Fluorescence was determined using a Hitachi F-2500 spectrofluorometer (Tokyo, Japan) at the excitation wavelength of 365 nm and the emission wavelength of 435 nm. […]

Compound	effect on microtubule/tubulin network [1]	effect on tubulin polymerization in words [2]	IC50 [3] [nM]	competition with colchicine: fluorescence of colchicine-tubulin complex [4]	IC50 ([2]; data at the 20 min time point, read-out: IC50 of tubulin polymerization inhibition) [nM]	antiproliferative activity in words ([3]; SGC-7901, A549 and HT-1080)
COc1ccc(/C=C\c2cc(OC)c(OC)c(OC)c2)cc1O [CA-4, Combretastatin A-4, reference compound]	the tubulin network showed a disruption	dose-dependent inhibition of tubulin polymerization	9 to 13	fluorescence of a colchicine-tubulin complex was reduced	–	–
COc1cccc(-c2nnc3n2N=C(c2ccc(OC)c(N)c2)CS3)c1 [Compound 6i, 3-(3-Methoxyphenyl)-6-(3-amino-4-methoxyphenyl)-7H-[1,2,4]triazolo[3,4-b][1,3,4]thiadiazine]	the tubulin network showed a disruption	dose-dependent inhibition of tubulin polymerization	11 to 15	fluorescence of a colchicine-tubulin complex was reduced	1600	nanomolar IC50 values against all tested cells; also recorded: IC50 values at the nanomolar level
